pIC50: −log10 of the molar value. Read-outs that look alike come from different tables or passages of the source.
Assays:
5-α reductase type I [1] = target: T1, 5-α reductase type I (Homo sapiens, UniProt P18405); assay: Inhibition of 5-alpha-reductase type I in HEK I cells (conversion of [4-14C]-androstenedione to dihydroandrostenedione); assay type: cell-based
T1 construct: expressed in transfected cells; host or cells: HEK I cells (HEK line kept under Geneticin-418 selection)
T1 sequence (P18405 1-259): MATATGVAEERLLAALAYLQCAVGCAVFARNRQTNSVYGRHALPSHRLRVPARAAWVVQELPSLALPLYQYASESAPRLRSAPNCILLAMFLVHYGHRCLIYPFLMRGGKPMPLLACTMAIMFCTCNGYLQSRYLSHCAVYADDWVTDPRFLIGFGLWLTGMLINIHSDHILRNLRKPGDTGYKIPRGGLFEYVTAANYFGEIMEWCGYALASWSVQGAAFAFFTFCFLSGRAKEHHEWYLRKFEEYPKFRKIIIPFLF
Method: Les cellules de type HEK I et HEK II ont été utilisées dans du DMEM (pH 7.4) avec 10 % FCS, Penicillin/Streptomycin (100 U/mL and 100 µg/mL) et 0.5 mg/mL de Geneticin-418-sulfate. Les tests d'inhibition ont été réalisés à des concentrations cellulaires de 0.25 x 106 cellules par 1.9 cm^2 et incubées pendant 20 h, 5 % CO2 à 37 °C.

5-α reductase type II [2] = target: T2, 5-α reductase type II (Homo sapiens, UniProt P31213); conditions: reference value used to choose the positive control concentration; read-out: IC50 du finasteride; cited from earlier work
T2 construct: expressed in transfected cells; host or cells: HEK II cells (HEK line kept under Geneticin-418 selection)
T2 sequence (P31213 1-254): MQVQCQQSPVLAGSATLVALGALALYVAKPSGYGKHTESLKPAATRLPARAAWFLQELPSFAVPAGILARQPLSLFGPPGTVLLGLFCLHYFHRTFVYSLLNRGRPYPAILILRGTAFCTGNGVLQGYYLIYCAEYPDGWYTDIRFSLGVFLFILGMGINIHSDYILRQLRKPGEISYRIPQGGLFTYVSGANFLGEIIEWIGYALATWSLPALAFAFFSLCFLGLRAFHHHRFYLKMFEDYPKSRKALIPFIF

5-α reductase type II [3] = target: T2, 5-α reductase type II; assay: Inhibition of 5-alpha-reductase type II in HEK II cells (conversion of [4-14C]-androstenedione to dihydroandrostenedione); assay type: cell-based; conditions: for % inhibition de la 5-α reductase type II: n.i. = pas d'inhibition observée
Method: Les cellules de type HEK I et HEK II ont été utilisées dans du DMEM (pH 7.4) avec 10 % FCS, Penicillin/Streptomycin (100 U/mL and 100 µg/mL) et 0.5 mg/mL de Geneticin-418-sulfate. Les tests d'inhibition ont été réalisés à des concentrations cellulaires de […] cellules par 1.9 cm^2 et incubées pendant 20 h, 5 % CO2 à 37 °C.
Les composés sont dissous dans le DMSO et dilués avec le DMEM pour atteindre les concentrations finales de 100 µM, 10 µM et 1 µM.
Les mesures ont été réalisées grâce à un Phospholmager et les spots correspondant au [4-14C]-androstenedione (A) et au [4-14C]-dihydroandrostenedione (DHA) furent enregistrés avec le logiciel correspondant.
Les calculs ont été réalisés selon la formule suivante: % conversion = (PSL(DHA))/(PSL(DHA+A)) × 100 [formula]
Le pourcentage d'inhibition a été calculé sur une moyenne de deux mesures.
La référence est le finastéride, un médicament inhibiteur des 5α-reductase qui est utilisé comme contrôle positif à deux concentrations de 800 nM et 100 nM, correspondant à l'IC50 du finasteride pour la 5α-reductase de type I et la 5α-reductase de type II, respectivement.

5-α reductase type I [4] = target: T1, 5-α reductase type I; conditions: reference value used to choose the positive control concentration; read-out: IC50 du finasteride; cited from earlier work
[5] = test system: taux plasmatique de testostérone; assay: Plasma testosterone level in mice after chronic i.p. administration (ELISA); assay type: in vivo, souris SWISS; conditions: young male mice, figure 1, result in words
Method: […] […] • Letrozole • Dose étudiée : 2 mg/kg. • Mise en solution extemporanée dans le méthylcellulose • Honokiol • Doses étudiée : • Honokiol : 0.01, 0.05, 0.5, 2, 5, 10 mg/kg. • Mise en solution extemporanée dans le méthylcellulose • Voie d'administration : […].). • Volume d'injection : 10 ml/kg. Les dosages ont é[…] selon le protocole du kit ELISA commercialisé par la société AbCys S.A., France.

| Structure (SMILES) | inhibition at 0.1 µM (5-α reductase type I [1]; 100 nM, mean of two measurements, read-out: % inhibition de la 5-α reductase type I) | inhibition at 0.8 µM (5-α reductase type I [1]; 800 nM, mean of two measurements, read-out: % inhibition de la 5-α reductase type I) | pIC50 (5-α reductase type II [2]) | inhibition at 0.1 µM (5-α reductase type II [3]; 100 nM, mean of two measurements, read-out: % inhibition de la 5-α reductase type II) | inhibition at 0.8 µM (5-α reductase type II [3]; 800 nM, mean of two measurements, read-out: % inhibition de la 5-α reductase type II) | pIC50 (5-α reductase type I [4]) | inhibition at 1 µM (5-α reductase type I [1]; 1 µM, mean of two measurements, read-out: % inhibition de la 5-α reductase type I) | inhibition at 10 µM (5-α reductase type I [1]; 10 µM, mean of two measurements, read-out: % inhibition de la 5-α reductase type I) | inhibition at 100 µM (5-α reductase type I [1]; 100 µM, mean of two measurements, read-out: % inhibition de la 5-α reductase type I) | sélectivité 5-α réductase de type I / type II (5-α reductase type I [1]; conclusion in words) | pIC50 (5-α reductase type I [1]; estimate from the dose-dependent inhibition) | % inhibition de la 5-α reductase type II (5-α reductase type II [3]; 1 µM) | % inhibition de la 5-α reductase type II (5-α reductase type II [3]; 10 µM) | % inhibition de la 5-α reductase type II (5-α reductase type II [3]; 100 µM) | affinité pour la 5-α réductase de type II (5-α reductase type II [3]; result in words) | taux de testostérone plasmatique [5] |
| --- | --- | --- | --- | --- | --- | --- | --- | --- | --- | --- | --- | --- | --- | --- | --- | --- |
| CC(C)(C)NC(=O)[C@H]1CC[C@H]2[C@@H]3CC[C@H]4NC(=O)C=C[C@]4(C)[C@H]3CC[C@]12C [Finasteride, finastéride, reference compound] | 11% | 48% | 7.00 | 55% | 89% | 6.10 |  |  |  |  |  |  |  |  |  |  |
| C=CCc1ccc(O)c(-c2ccc(O)c(CC=C)c2)c1 [Honokiol, honokiol] |  |  |  |  |  |  | 1% | 11% | 64% | inhibiteur sélectif de la 5-α réductase de type I | ~4.10 | n.i. | n.i. | n.i. | aucune affinité n'est observée | modulation du taux de testostérone en fonction des doses administrées |

— EP2114387B1, “USE OF COMPOSITIONS CONTAINING AT LEAST ONE LIGNANE AND/OR NEOLIGNANE FOR MODULATING TESTOSTERONE LEVELS” (Europe Finances, priority 2007, dated 2008)
